# Patent US20250034139A1, “AMINE COMPOUNDS HAVING ANTI-INFLAMMATORY, ANTIFUNGAL, ANTIPARASITIC, AND ANTICANCER ACTIVITY” (PHARMA CINQ, LLC, priority 2013, published 2025)
# System: Cryptococcus neoformans (serotype A)
# Test: Example L: Cryptococcus neoformans (serotype A) growth inhibition
# Type: cell-based
# Conditions: Cryptococcus neoformans, Macrophage; direct inhibition, values of the earlier study (Table 25); read-out: IC50 value (μM) for inhibition of fungal growth, No macrophages
# Experimental: Cryptococcus neoformans (serotype A) were plated in 96 well plates with 144 μl/well of 5×10e5 CFU/ml in YPD growth medium. Diluted compounds were then added to each well with concentration ranged from 0.05 to 10 μM as final concentration in duplicates. The plates were inoculated at 30° C. Two readings of OD at 600 nm were measured after 18 hr and […] treatments.
# C12-imidazol had relative weak activity against Cryptococcus serotype A at low concentration. Data plotted was based on 26 hour reading because 18 hour reading was too low.
# • 1. Pick a single colony of Cryptococcus from the Sabouraud Dextrose agar plate using the inoculum loop and inoculate into a 125 ml flask containing 25 ml of YPD growth medium • 2. Incubate at 30° C. with shaking at 220 rpm for 24 hours with loosen lid to allow air in and facilitates growth. • 3. Examine an aliquot of the culture under a microscope for yeast cell morphology and lack of bacterial contamination. • 4. Dilute the overnight culture with YPD medium at 1:100 dilution and count the number of cells as 8×10^6 cfu/ml. • 5. Make a final concentration of cells suspension at 5×10^5 cfu/ml in YPD medium after the stock culture had been stored at 4° C. for 3 days. • 6. Plate 144 μl/well of 5×10^5 cfu/ml cell suspension on 96-well plates. Part-II: Cryptococcus Growth Inhibition Testing with Compounds • 1. From 10 mM DMSO stock solutions, make serial dilutions of compounds to 0.0013, 0.0025, 0.0125, 0.025, 0.05, 0.125 and 0.25 mM solution • 2. Add 6 ul each of diluted compound solutions per well in duplicates. The final concentrations were 0, 0.05, 0.1, 0.5, 1.0, 2.0, 5.0 and 10 micromolar. • 3. Incubated all plates at 30° C. overnight with 175 rpm shaking. • 4. Read absorbance at OD600 after 18 and 26 hours for each plate. • 5. Calculated the % inhibition and IC50 of each compound against the untreated cell.
row,SMILES,IC50
1,"CCCCOCCCCCCCCCCNc1ccnc2ccccc12 [AM, N-(10-Butoxydecyl)quinolin-4-amine]",1.57 µM
2,"c1ccc(Oc2cccc(CNc3ncnc4ccccc34)c2)cc1 [BM, N-(3-Phenoxybenzyl)quinazolin-4-amine]",0.69 µM
3,"CCCCCCOc1cccc(CNc2ccnc3ccccc23)c1 [Compound AC, N-[3-(Hexyloxy)benzyl]quinolin-4-amine]",1.15 µM
4,"CCCCCCCCCCNc1ncnc2ccccc12 [Compound AH, N-(Decyl)quinazolin-4-amine]",0.39 µM

# Same assay, conditions: Cryptococcus neoformans, read-out: IC50, uM (concentration for 50% of inhibition); OD of 26 hour reading, 30° C., XLfit
row,SMILES,IC50
1,"CCCCOCCCCCCCCCCNc1ccnc2ccccc12 [AM, N-(10-Butoxydecyl)quinolin-4-amine]",1.57 µM
2,"c1ccc(Oc2cccc(CNc3ncnc4ccccc34)c2)cc1 [BM, N-(3-Phenoxybenzyl)quinazolin-4-amine]",0.69 µM

# The remaining lines, values ahead:
row,IC50,SMILES
1,0.54 µM,"COc1ccc(OCCCCCCCCNc2ncnc3ccccc23)cc1 [AE, N-[8-(4-Methoxyphenoxy)octyl]quinazolin-4-amine]"
2,0.39 µM,"CCCCCCCCCCNc1ncnc2ccccc12 [Compound AH, N-(Decyl)quinazolin-4-amine]"

# Same assay, conditions: Cryptococcus neoformans; OD of 26 hour reading, 30° C., XLfit; read-out: MIC, uM (concentration for maximum - 99% of inhibition)
row,SMILES,MIC
1,"CCCCOCCCCCCCCCCNc1ccnc2ccccc12 [AM, N-(10-Butoxydecyl)quinolin-4-amine]",10.5 µM
2,"c1ccc(Oc2cccc(CNc3ncnc4ccccc34)c2)cc1 [BM, N-(3-Phenoxybenzyl)quinazolin-4-amine]",17.5 µM
3,"CCCCCCOc1cccc(CNc2ccnc3ccccc23)c1 [Compound AC, N-[3-(Hexyloxy)benzyl]quinolin-4-amine]",12.6 µM

# More lines, now with the values ahead:
row,MIC,SMILES
1,14.7 µM,"COc1ccc(OCCCCCCCCNc2ncnc3ccccc23)cc1 [AE, N-[8-(4-Methoxyphenoxy)octyl]quinazolin-4-amine]"
2,12 µM,"CCCCCCCCCCNc1ncnc2ccccc12 [Compound AH, N-(Decyl)quinazolin-4-amine]"

# System: Trichophyton rubrum strains
# Test: Example N: MIC and MFC (CLSI) against Trichophyton rubrum
# Type: cell-based
# Conditions: read-out: MIC 100%, Range, incubated for 96 hrs, three clinical strains
# Experimental: (§1) The objective of this study was to determine the antifungal activity of eight experimental compounds against a representative panel of fungal isolates, including Candida albicans, C. glabrata, Cryptococcus neoformans, Trichophyton rubrum, Aspergillus fumigatus, and Rhizopus spp. Antifungal activity was measured by minimum inhibitory concentration (MIC) and minimum fungicidal concentration (MFC).
# (§2) Three recent clinical strains of each species, taken from the culture collection at the Center for Medical Mycology, Case Western University, were tested.
# (§3) Compounds in powder form were dissolved in DMSO. Serial dilutions of each compound were then prepared in RPMI-1640 in a range of […].
# (§4) MIC testing was performed according to the CLSI M27-A3 and M38-A2 standards for the susceptibility testing of yeasts and filamentous fungi, respectively (1, 2). Test isolates were subcultured from frozen slants onto potato dextrose agar plates (Trichophyton rubrum was subcultured onto oatmeal plates for conidia production) and checked for purity. Inocula were then prepared in RPMI-1640 (YNB for Cryptococcus) to a concentration of 0.5-2.5×10^3 colony-forming units (CFU)/ml or 0.4-5×10^4 conidia/ml for yeast and filamentous fungi, respectively.
# (§5) MFC determinations were performed according to the modifications previously described by Canton et al. and Ghannoum and Isham. (3, 4) Specifically, the total contents of each clear well from the MIC assay were subcultured onto potato dextrose agar. To avoid antifungal carryover, the aliquots were allowed to soak into the agar and then were streaked for isolation once dry, thus removing the cells from the drug source.
row,SMILES,MIC
1,"COc1ccc(OCCCCCCCCNc2ncnc3ccccc23)cc1 [AE, N-[8-(4-Methoxyphenoxy)octyl]quinazolin-4-amine]",4 to 16 µg/mL
2,"CCCCOCCCCCCCCCCNc1ccnc2ccccc12 [AM, N-(10-Butoxydecyl)quinolin-4-amine]",0.5 to 4 µg/mL
3,"CCCCCCOc1cccc(CNc2ccnc3ccccc23)c1 [Compound AC, N-[3-(Hexyloxy)benzyl]quinolin-4-amine]",0.5 to 4 µg/mL
4,"CCCCCCCCCCNc1ncnc2ccccc12 [Compound AH, N-(Decyl)quinazolin-4-amine]",0.25 to 4 µg/mL

# Same assay, conditions: three clinical strains
row,SMILES,MFC
1,"COc1ccc(OCCCCCCCCNc2ncnc3ccccc23)cc1 [AE, N-[8-(4-Methoxyphenoxy)octyl]quinazolin-4-amine]",4 to 16 µg/mL
2,"CCCCOCCCCCCCCCCNc1ccnc2ccccc12 [AM, N-(10-Butoxydecyl)quinolin-4-amine]",1 to 4 µg/mL
3,"CCCCCCOc1cccc(CNc2ccnc3ccccc23)c1 [Compound AC, N-[3-(Hexyloxy)benzyl]quinolin-4-amine]",0.5 to 4 µg/mL
4,"CCCCCCCCCCNc1ncnc2ccccc12 [Compound AH, N-(Decyl)quinazolin-4-amine]",0.25 to 16 µg/mL

# System: Candida albicans strains
# Test: Example N: MIC and MFC (CLSI) against Candida albicans
# Type: cell-based
# Parameters: MIC at 50% inhibition / MIC at 100% inhibition: unit not given here
# Conditions: 3 strains
# Experimental: as §1, §2, §3, §4, §5
row,SMILES,"cidal activity (MFC within 4 dilutions of the MIC), in words"
1,"CCCCCCOc1cccc(CNc2ccnc3ccccc23)c1 [Compound AC, N-[3-(Hexyloxy)benzyl]quinolin-4-amine]",cidal against 2 of the 3 C. albicans strains tested

# Same assay, conditions: 24 hrs
SMILES,MIC at 50% inhibition,MIC at 100% inhibition
"CCCCCCOc1cccc(CNc2ccnc3ccccc23)c1 [Compound AC, N-[3-(Hexyloxy)benzyl]quinolin-4-amine]",<0.12-0.25,<0.12-1

# Same assay, conditions: 48 hrs
row,SMILES,MIC at 50% inhibition
1,"CCCCCCOc1cccc(CNc2ccnc3ccccc23)c1 [Compound AC, N-[3-(Hexyloxy)benzyl]quinolin-4-amine]",<0.12-1

# Same assay, conditions: Candida albicans, read-out: MIC 100%, Range; 24 hr, three clinical strains
row,SMILES,MIC
1,"COc1ccc(OCCCCCCCCNc2ncnc3ccccc23)cc1 [AE, N-[8-(4-Methoxyphenoxy)octyl]quinazolin-4-amine]",0.5 to 4 µg/mL
2,"CCCCOCCCCCCCCCCNc1ccnc2ccccc12 [AM, N-(10-Butoxydecyl)quinolin-4-amine]",2 to 4 µg/mL
3,"CCCCCCOc1cccc(CNc2ccnc3ccccc23)c1 [Compound AC, N-[3-(Hexyloxy)benzyl]quinolin-4-amine]",0.12 to 1 µg/mL
4,"CCCCCCCCCCNc1ncnc2ccccc12 [Compound AH, N-(Decyl)quinazolin-4-amine]",0.12 to 4 µg/mL

# Same assay, conditions: Candida albicans, read-out: MIC 100%, Range; 48 hr, three clinical strains
row,SMILES,MIC
1,"COc1ccc(OCCCCCCCCNc2ncnc3ccccc23)cc1 [AE, N-[8-(4-Methoxyphenoxy)octyl]quinazolin-4-amine]",4 µg/mL
2,"CCCCOCCCCCCCCCCNc1ccnc2ccccc12 [AM, N-(10-Butoxydecyl)quinolin-4-amine]",2 to 4 µg/mL
3,"CCCCCCOc1cccc(CNc2ccnc3ccccc23)c1 [Compound AC, N-[3-(Hexyloxy)benzyl]quinolin-4-amine]",0.5 to 2 µg/mL
4,"CCCCCCCCCCNc1ncnc2ccccc12 [Compound AH, N-(Decyl)quinazolin-4-amine]",1 to 4 µg/mL

# Same assay, conditions: Candida albicans; 48 hr, three clinical strains
row,SMILES,MFC
1,"COc1ccc(OCCCCCCCCNc2ncnc3ccccc23)cc1 [AE, N-[8-(4-Methoxyphenoxy)octyl]quinazolin-4-amine]",8 to 64 µg/mL
2,"CCCCOCCCCCCCCCCNc1ccnc2ccccc12 [AM, N-(10-Butoxydecyl)quinolin-4-amine]",4 µg/mL
3,"CCCCCCOc1cccc(CNc2ccnc3ccccc23)c1 [Compound AC, N-[3-(Hexyloxy)benzyl]quinolin-4-amine]",2 µg/mL
4,"CCCCCCCCCCNc1ncnc2ccccc12 [Compound AH, N-(Decyl)quinazolin-4-amine]",4 to 32 µg/mL

# System: Rhizopus strains
# Test: Example N: MIC and MFC (CLSI) against Rhizopus
# Type: cell-based, Rhizopus spp.
# Conditions: 24 hrs
# Experimental: as §1, §2, §3, §4, §5
SMILES,MIC at 50% inhibition,MIC at 100% inhibition
"COc1ccc(OCCCCCCCCNc2ncnc3ccccc23)cc1 [AE, N-[8-(4-Methoxyphenoxy)octyl]quinazolin-4-amine]",< 0.12 µg/mL,–
"CCCCCCOc1cccc(CNc2ccnc3ccccc23)c1 [Compound AC, N-[3-(Hexyloxy)benzyl]quinolin-4-amine]",<0.12-0.25,0.5 µg/mL
"CCCCCCCCCCNc1ncnc2ccccc12 [Compound AH, N-(Decyl)quinazolin-4-amine]",–,2 µg/mL

# Same assay, conditions: 48 hr
SMILES,MIC at 50% inhibition,MIC at 100% inhibition
"CCCCCCCCCCNc1ncnc2ccccc12 [Compound AH, N-(Decyl)quinazolin-4-amine]",2 µg/mL,2 µg/mL

# Same assay, conditions: Rhizopus, 24 h
row,SMILES,MIC50
1,"COc1ccc(OCCCCCCCCNc2ncnc3ccccc23)cc1 [AE, N-[8-(4-Methoxyphenoxy)octyl]quinazolin-4-amine]",< 0.12 µg/mL
2,"CCCCOCCCCCCCCCCNc1ccnc2ccccc12 [AM, N-(10-Butoxydecyl)quinolin-4-amine]",1 to 2 µg/mL
3,"CCCCCCOc1cccc(CNc2ccnc3ccccc23)c1 [Compound AC, N-[3-(Hexyloxy)benzyl]quinolin-4-amine]",0.12 to 0.25 µg/mL
4,"CCCCCCCCCCNc1ncnc2ccccc12 [Compound AH, N-(Decyl)quinazolin-4-amine]",0.25 to 0.5 µg/mL

# Same assay, conditions: Rhizopus, 24 h, read-out: MIC 100%
row,SMILES,MIC
1,"COc1ccc(OCCCCCCCCNc2ncnc3ccccc23)cc1 [AE, N-[8-(4-Methoxyphenoxy)octyl]quinazolin-4-amine]",1 to 2 µg/mL
2,"CCCCOCCCCCCCCCCNc1ccnc2ccccc12 [AM, N-(10-Butoxydecyl)quinolin-4-amine]",2 to 4 µg/mL
3,"CCCCCCOc1cccc(CNc2ccnc3ccccc23)c1 [Compound AC, N-[3-(Hexyloxy)benzyl]quinolin-4-amine]",0.5 µg/mL
4,"CCCCCCCCCCNc1ncnc2ccccc12 [Compound AH, N-(Decyl)quinazolin-4-amine]",2 µg/mL

# Same assay, conditions: Rhizopus, 48 h
row,SMILES,MIC50
1,"COc1ccc(OCCCCCCCCNc2ncnc3ccccc23)cc1 [AE, N-[8-(4-Methoxyphenoxy)octyl]quinazolin-4-amine]",1 to 2 µg/mL
2,"CCCCOCCCCCCCCCCNc1ccnc2ccccc12 [AM, N-(10-Butoxydecyl)quinolin-4-amine]",2 to 4 µg/mL
3,"CCCCCCOc1cccc(CNc2ccnc3ccccc23)c1 [Compound AC, N-[3-(Hexyloxy)benzyl]quinolin-4-amine]",0.5 µg/mL
4,"CCCCCCCCCCNc1ncnc2ccccc12 [Compound AH, N-(Decyl)quinazolin-4-amine]",2 µg/mL

# Same assay, conditions: Rhizopus, 48 h, read-out: MIC 100%
row,SMILES,MIC
1,"COc1ccc(OCCCCCCCCNc2ncnc3ccccc23)cc1 [AE, N-[8-(4-Methoxyphenoxy)octyl]quinazolin-4-amine]",1 to 4 µg/mL
2,"CCCCOCCCCCCCCCCNc1ccnc2ccccc12 [AM, N-(10-Butoxydecyl)quinolin-4-amine]",4 µg/mL
3,"CCCCCCOc1cccc(CNc2ccnc3ccccc23)c1 [Compound AC, N-[3-(Hexyloxy)benzyl]quinolin-4-amine]",0.5 to 1 µg/mL
4,"CCCCCCCCCCNc1ncnc2ccccc12 [Compound AH, N-(Decyl)quinazolin-4-amine]",2 µg/mL

# Same assay, conditions: Rhizopus, read-out: MIC at 50% inhibition; 48 hr
row,SMILES,MIC
1,"CCCCCCOc1cccc(CNc2ccnc3ccccc23)c1 [Compound AC, N-[3-(Hexyloxy)benzyl]quinolin-4-amine]",0.5 µg/mL

# Same assay, conditions: Rhizopus, read-out: MIC at 100% inhibition; 48 hr
row,SMILES,MIC
1,"CCCCCCOc1cccc(CNc2ccnc3ccccc23)c1 [Compound AC, N-[3-(Hexyloxy)benzyl]quinolin-4-amine]",0.5 to 1 µg/mL

# Same assay, conditions: range over Rhizopus strains, in 48 hr
row,SMILES,MFC
1,"COc1ccc(OCCCCCCCCNc2ncnc3ccccc23)cc1 [AE, N-[8-(4-Methoxyphenoxy)octyl]quinazolin-4-amine]",64 µg/mL
2,"CCCCOCCCCCCCCCCNc1ccnc2ccccc12 [AM, N-(10-Butoxydecyl)quinolin-4-amine]",8 to 32 µg/mL
3,"CCCCCCOc1cccc(CNc2ccnc3ccccc23)c1 [Compound AC, N-[3-(Hexyloxy)benzyl]quinolin-4-amine]",16 to 64 µg/mL
4,"CCCCCCCCCCNc1ncnc2ccccc12 [Compound AH, N-(Decyl)quinazolin-4-amine]",64 µg/mL
